Data from patent publication US12319929B2, “Compositions and methods for the treatment of Parkinson's disease” (VOYAGER THERAPEUTICS, INC., priority 2018, dated 2025).

Tested on: patients with motor response fluctuations
Test: UPDRS III AUC response to threshold and suprathreshold IV levodopa infusion
Type: in vivo, human
Conditions: Baseline before AAV2-hAADC
Protocol: On sequential days, patients received either a threshold (0.6 mg/mL; low-dose) or suprathreshold (1.2 mg/mL; high-dose) infusion of IV levodopa dosed at 1 mL/kg/hr for 2 hours. The order and threshold of IV levodopa dosing was randomized and double-blinded (LHLH, LHHL, HLHL, HLLH).
Oral carbidopa (25 mg) was administered 1-2 hours before, during, and 1-2 hours after the infusion. Participants' motor response was measured by UPDRS III (time to 30% change and duration of 30% responses); bradykinesia was measured by finger tapping rate; and dyskinesia was measured by Abnormal Involuntary Movement Scale (AIMS) scoring. Pharmacokinetics were assessed every 30 minutes after administration of IV levodopa.
Results for Group 1 are shown in FIG. 12a: results for Group 2 are shown in FIG. 12b; and results for Group 3 are shown in FIG. 12c.

Structure (SMILES): N[C@@H](Cc1ccc(O)c(O)c1)C(=O)O [IV Levodopa, L-3,4-dihydroxyphenylalanine]
- UPDRS III AUC, mean (standard error) (Suprathreshold (1.2 mg/kg/hr) IV Levodopa, Group 1 (N = 5)): −72.8 (13.1)
- UPDRS III AUC, mean (standard error) (Suprathreshold (1.2 mg/kg/hr) IV Levodopa, Group 2 (N = 5)): −45.0 (13.5)
- UPDRS III AUC, mean (standard error) (Suprathreshold (1.2 mg/kg/hr) IV Levodopa, Group 3 (N=3)): −41.1 (13.8)
- UPDRS III AUC, mean (standard error) (Threshold (0.6 mg/kg/hr) IV Levodopa, Group 1 (N = 5)): −22.1 (9.7)
- UPDRS III AUC, mean (standard error) (Threshold (0.6 mg/kg/hr) IV Levodopa, Group 2 (N = 5)): −21.8 (5.9)
- UPDRS III AUC, mean (standard error) (Threshold (0.6 mg/kg/hr) IV Levodopa, Group 3 (N=3)): −16.1 (11.4)
